In general, IC50 refers to the concentration at which inhibition is half-maximal. Lower therefore signals higher potency. A word on the melting point: it is the temperature of the solid-liquid transition.

Bounds are passed on as bounds.

One data set concerns normal cell. The data set can be described thus: Cytotoxicity on a normal cell (for selectivity index). To be noted: for IC50: column head names no cell, normal cell according to b79; for SI (selectivity index): ratio IC50 on normal cell / IC50 on cancer cell line. It counts as cell-based. The procedure: (§1) Sulforhodamine B(SRB) assay method was used to evaluate cytotoxicity. Exponentially growing cells were collected using 0.25% Trypsin‐EDTA seeded in 96‐well plates at 1000‐2000 cells/well in RBMI‐1640 supplemented medium. After 24 h, cells were incubated for 72 h with various concentrations of the tested compounds. Following 72 h treatments, the cells would be fixed with 10% trichloroacetic acid for 1 h at 4°C. Wells were stained for 10 minutes at room temperature with 0.4% SRBC (Sulphorhodamine B) dissolved in 1% acetic acid. After that, the plates were air-dried for 24 h. At the same time, the dye was dissolved in Tris‐HCl and left for 5 min on the shaker at 1600 rpm. Each well’s optical density (OD) was measured spectrophotometrically at 564 nm; by using an ELISA microplate reader (ChroMate‐4300, FL, USA). The IC50 values were calculated according to the equation for Boltzman sigmoidal concentration-response curve using the nonlinear regression fitting models (Graph Pad, Prism Version 9).
The compounds show good selectivity toward cancerous cells, represented by the “selectivity index.” The selectivity index was previously used to measure selective cytotoxic activity. The selectivity index (SI) can be calculated from the ratio between IC50 of the compound on a normal cell and the compound on a cancer cell line. For example, the SI of compounds 6d, 10a, 10d, and 16 are 86.98, 76.82, 74.32, and 54.13, respectively.

Data set [1] has as its system COLO205 cells (colon cancer). Nature of the data set: SRB cytotoxicity assay, colon cancer cells COLO205. The class given is cell-based. The method, then: (§2) A- Cell culture. The cells were obtained from the Egyptian Holding Company for Biological Products & Vaccines (VACSERA), Giza, Egypt, then maintained in the tissue culture unit. […] The cells were maintained as monolayer culture by serial sub‐culturing. Cell culture reagents were obtained from Lonza (Basel, Switzerland).
as §1, with “Exponentially growing cells were collected using 0.25% Trypsin‐EDTA seeded in 96‐well plates at 1000‐2000 cells/well in RBMI‐1640 supplemented medium.” left out
(In general: In SRB staining, fixed cells bind dye roughly in proportion to their protein.)

Data set [2] concerns Gastric (SNU-16) Patch number (ATCC CRL-5822). Nature of the data set: SRB cytotoxicity assay, gastric cancer cells SNU-16. The class given is cell-based. The procedure:
as §2
as §1, with “Exponentially growing cells were collected using 0.25% Trypsin‐EDTA seeded in 96‐well plates at 1000‐2000 cells/well in RBMI‐1640 supplemented medium.” left out

Setting [3] is: Homo sapiens, COLO 205, 72 h incubation.
Setting [4] is: Homo sapiens, SNU-16, 72 h incubation.

For the compound `Cc1nc(N/N=C2\CCc3cc(Br)ccc32)sc1/N=N/c1ccccc1` [6a, 2-(2h4(5-Bromo-2,3-dihydro-1H-inden-1-ylidene)hydrazineyl)-4-methyl-5-(phenyldiazenyl)-thiazole], the melting point is 220 to 222 °C. In addition, the IC50 with normal cell was over 100 µM. For the same compound, in data set [1] (setting [3]), the IC50 amounted to 17.14 ± 0.12 µM. For the same compound, the IC50 in data set [2] (setting [4]) came to 21.79 ± 0.076 µM.

As for `Cc1cccc(N=Nc2sc(NN=C3CCc4cc(Br)ccc43)nc2C)c1` [6b, 2-(2-(5-Bromo-2,3-dihydro-1H-inden-1-ylidene)hydrazineyl)-4-methyl-5-(m-tolyldiazenyl)-thiazole], the melting point fell in the range of 128 to 129 °C. For the same compound, the IC50 in the data set on normal cell was over 100 µM. This compound also came in with an IC50 in data set [1] (setting [3]) of 9.813 ± 0.005 µM. The compound further displayed an IC50 in data set [2] (setting [4]) of 12.28 ± 0.03 µM.

Take `Cc1ccc(N=Nc2sc(NN=C3CCc4cc(Br)ccc43)nc2C)cc1` [6c, 2-(2-(5-Bromo-2,3-dihydro-1H-inden-1-ylidene)hydrazineyl)-4-methyl-5-(p-tolyldiazenyl)thiazole]: the melting point fell in the range of 130 to 132 °C. In the data set on normal cell, this compound displayed an IC50 of over 100 µM. In addition, inhibition in data set [1] (setting [3]) was half-maximal at 7.576 ± 0.07 µM (IC50). In data set [2] (setting [4]), this compound gave a 50% inhibitory concentration (IC50) of 12.89 ± 0.076 µM.

Consider `Cc1nc(NN=C2CCc3cc(Br)ccc32)sc1N=Nc1cccc(Cl)c1` [6d, 2-(2-(5-Bromo-2,3-dihydro-1H-inden-1-ylidene)hydrazineyl)-5-((3-chlorophenyl)-diazenyl)-4-methylthiazole], for which the values for the IC50 (in the data set with normal cell; in data set [1] (setting [3]); in data set [2] (setting [4])) were 605 ± 35.2 µM, 6.958 ± 0.04 µM and 19.79 ± 0.129 µM, respectively. In the data set with normal cell, the “SI (selectivity index)” value is on record as 86.98.

`Cc1nc(NN=C2CCc3cc(Br)ccc32)sc1N=Nc1ccc(Cl)cc1` [6e, 2-(2-(5-Bromo-2,3-dihydro-1H-inden-1-ylidene)hydrazineyl)-5-((4-chlorophenyl)diazenyl)-4-methylthiazole] came in with a melting point of 177 to 178 °C. Besides, the IC50 with normal cell is over 100 µM. For the same compound, in data set [1] (setting [3]), the IC50 is 7.276 ± 0.03 µM. This compound returned an IC50 in data set [2] (setting [4]) of 26.19 ± 0.12 µM.

For the compound `Brc1ccc2c(c1)CCC2=NNc1nc(-c2ccccc2)cs1` [10a, N-(5-Bromo-indan-1-ylidene)-N’-(4-phenyl-thiazol-2-yl)-hydrazine], the IC50 in the data set on normal cell is 485 ± 7.89 µM; in data set [1] (setting [3]) it was 6.301 ± 0.008 µM; in data set [2] (setting [4]), 20 ± 0.64 µM. The “SI (selectivity index)” value with normal cell came out at 76.82.

`Cc1ccc(-c2csc(NN=C3CCc4cc(Br)ccc43)n2)cc1` [10b, N-(5-Bromo-indan-1-ylidene)-N’-(4-p-tolyl-thiazol-2-yl)-hydrazine]: the melting point lay in the range of 233 to 234 °C. This compound had an IC50 with normal cell of over 100 µM. This compound returned an IC50 in data set [1] (setting [3]) of 12.08 ± 0.006 µM. The IC50 in data set [2] (setting [4]) was found to be 18.3 ± 0.39 µM.

`Brc1ccc(-c2csc(NN=C3CCc4cc(Br)ccc43)n2)cc1` [10c, N-(5-Bromo-indan-1-ylidene)-N’-[4-(4-bromo-phenyl)-thiazol-2-yl]-hydrazine] gave a melting point of 230 to 232 °C. Also, the IC50 with normal cell was over 100 µM. In data set [1] (setting [3]), this compound gave an IC50 of 13.81 ± 0.025 µM. In data set [2] (setting [4]), this compound yielded an IC50 of 26.8 ± 0.6 µM.

Take `Clc1ccc(-c2csc(NN=C3CCc4cc(Br)ccc43)n2)cc1` [10d, N-(5-Bromo-indan-1-ylidene)-N’-[4-(4-chloro-phenyl)-thiazol-2-yl]-hydrazine]: the IC50 with normal cell amounted to 563 ± 44.2 µM; in data set [1] (setting [3]) it was 12.16 ± 0.06 µM; in data set [2] (setting [4]), 7.576 ± 0.075 µM. In addition, the “SI (selectivity index)” value in the data set with normal cell is recorded as 74.32.

In turn, `CC(=O)C(=NNc1ccccc1)NN=C1CCc2cc(Br)ccc21` [14a, N’-(5-bromo-2,3-dihydro-1H-inden-1-ylidene)-2-oxo-N’’-phenylpropanehydrazonhydrazide] yielded a melting point of 190 °C. This compound also had a half-inhibitory concentration (IC50) in the data set with normal cell of over 100 µM. For the same compound, in data set [1] (setting [3]), the IC50 came out at 11.27 ± 0.046 µM. This compound also returned an IC50 in data set [2] (setting [4]) of 14.9 ± 0.3 µM.

The compound `CC(=O)/C(=N\Nc1ccc(Cl)cc1)N/N=C1\CCc2cc(Br)ccc21` [14b, N’-(5-bromo-2,3-dihydro-1H-inden-1-ylidene)-N’’-(4-chlorophenyl)-2-oxopropanehydrazon-hydrazide] showed a melting point of 197 to 198 °C. Also, the IC50 in the data set on normal cell is over 100 µM. Besides, the midpoint of inhibition in data set [1] (setting [3]), the IC50, lay at 10.61 ± 0.09 µM. The IC50 in data set [2] (setting [4]) stood at 13.8 ± 0.69 µM.

For the compound `N.N.[Cl][Pt][Cl]` [Cisplatin, reference compound], the IC50 with normal cell stood at 548 ± 61.2 µM; in data set [1] (72 h incubation), 9.13 ± 0.07 µM; in data set [2] (72 h incubation) it was 11.27 ± 0.076 µM.

The compound `NC(=S)NN=C1CCc2cc(Br)ccc21` [compound 3, 2-(5-Bromo-2,3-dihydro-1H-inden-1-ylidene)hydrazine-1-carbothioamide] showed a melting point of 227 to 230 °C. Further, the IC50 in the data set with normal cell is over 100 µM. In data set [1] (setting [3]), this compound displayed an IC50 of 14.1 ± 0.04 µM. The same compound displayed an IC50 in data set [2] (setting [4]) of 19.01 ± 0.133 µM.

Consider `NN=C1CCc2cc(Br)ccc21` [compound 4, (5-Bromo-indan-1-ylidene)-hydrazine], for which the melting point came to 120 °C. The same compound came in with an IC50 with normal cell of over 100 µM. Besides, the IC50 in data set [1] (setting [3]) came out at 8.167 ± 0.07 µM. Half-maximal inhibition in data set [2] (setting [4]) (IC50) required 23.2 ± 0.204 µM.

In turn, `CCOC(=O)C(=NNc1ccccc1)NN=C1CCc2cc(Br)ccc21` [compound 15, Ethyl 2-(2-(5-bromo-2,3-dihydro-1H-inden-1-ylidene)hydrazineyl)-2-(2-phenyl-hydrazineylidene)acetate] had a melting point of 174 to 176 °C. Moreover, the IC50 with normal cell was over 100 µM. This compound had an IC50 in data set [1] (setting [3]) of 13.63 ± 0.04 µM. Also, 16.6 ± 0.38 µM corresponded to half-maximal inhibition in data set [2] (setting [4]) (IC50).

As for `O=C(Nc1ccccc1)C(=NNc1ccccc1)NN=C1CCc2cc(Br)ccc21` [compound 16, 2-(2-(5-Bromo-2,3-dihydro-1H-inden-1-ylidene)hydrazineyl)-N-phenyl-2-(2-phenyl-hydrazineylidene)acetamide], the IC50 was determined as 525 ± 36.2 µM with normal cell, 13.04 ± 0.025 µM in data set [1] (setting [3]) and 9.699 ± 0.0726 µM in data set [2] (setting [4]). For the same compound, the “SI (selectivity index)” value in the data set on normal cell stood at 54.13.

As to `CCN(CC)CCNC(=O)c1c(C)[nH]c(/C=C2\C(=O)Nc3ccc(F)cc32)c1C` [sunitinib, reference compound], the IC50 came out at 378 ± 31.8 µM with normal cell, 11.27 ± 0.033 µM in data set [1] (setting [3]) and 8.45 ± 0.023 µM in data set [2] (setting [4]).
